Some test systems named below: SNB-75; T47D; OVCAR-8; COLO 205; UACC-257; UACC-62; 786-0; MOLT-4; NCI-H460; SW-620; K562; PC-3; HOP-62; SN12C; HOP-92; DU-145; IGROV-1; RXF 393; HCC 2998.
Holding throughout (experiment): growth of human tumour cells (NCI), 48 h

Molecules are shown by their SMILES.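 Each compound was tested at five concentrations against cells in 96-well plates for 48 hours. At the GI50, growth is halved.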 Calls of active or inactive are those of the source. Rule as the data show it: active = GI50 up to about 1.1 µM and inactive = higher. Bounds are passed on as bounds.

Take `COc1cccc(C2SCC(=O)N2c2ccc(-n3c(-c4ccccc4)nc4ccccc4c3=O)cc2)c1OC` (stereo not drawn): the GI50 is > 60.5 µM (inactive) in the assay on SNB-75; 31.6 µM (inactive) with T47D; > 100 µM (inactive) in the assay with OVCAR-8; > 100 µM (inactive) in the assay with COLO 205; > 100 µM (inactive) with UACC-257; > 38.5 µM (inactive) in the assay with UACC-62. Also, the GI50 with 786-0, in the assay on MOLT-4, in the assay with NCI-H460, with SW-620, in the assay on K562 and in the assay with PC-3 was > 100 µM (inactive) in each case. For the same compound, the GI50 in the assay on HOP-62, in the assay with SN12C, in the assay on HOP-92, with DU-145, in the assay with IGROV-1 and in the assay on RXF 393 was > 100 µM (inactive) in each case. The GI50 with HCC 2998 is > 100 µM (inactive).

As for `Cc1[nH]c(/C=C2\C(=O)Nc3ccccc32)c(C)c1CCC(=O)O` [ORANTINIB], the GI50 in the assay with SNB-75 was 12.6 µM (inactive); in the assay with T47D, 34.1 µM (inactive); with OVCAR-8, 40.7 µM (inactive); in the assay with COLO 205 it was 20.6 µM (inactive); in the assay with UACC-257 it was 23.7 µM (inactive); in the assay on UACC-62, 32.2 µM (inactive). Besides, the GI50 in the assay with 786-0 is 51.4 µM (inactive); with MOLT-4 it was 30.1 µM (inactive); in the assay with NCI-H460 it was 31 µM (inactive); in the assay on SW-620 it was 25.7 µM (inactive); with K562, 36.4 µM (inactive); in the assay with PC-3, 35.7 µM (inactive). The GI50 in the assay with HOP-62 was 29.4 µM (inactive); in the assay with SN12C, 31 µM (inactive); with HOP-92, 21.8 µM (inactive); in the assay with DU-145 it was 31.5 µM (inactive); in the assay on IGROV-1, 21.9 µM (inactive); with RXF 393, 29.1 µM (inactive). Also, the GI50 with HCC 2998 was 35.6 µM (inactive).

`CCCCCCCC/C=C\CCCCCCC/C=C1/C[C@](/C=C/C(=O)OC)(CO)OC1=O`: the GI50 in the assay on SNB-75 was 7.66 µM (inactive); in the assay with T47D, 7.38 µM (inactive); in the assay on OVCAR-8, 6.65 µM (inactive); in the assay on COLO 205, 1.57 µM (inactive); in the assay with UACC-257 it was 15.6 µM (inactive); in the assay with UACC-62, 9.35 µM (inactive). The GI50 is 0.908 µM (active) with 786-0; 1.3 µM (inactive) in the assay on MOLT-4; 2.15 µM (inactive) in the assay with NCI-H460; 2.66 µM (inactive) in the assay with SW-620; 0.561 µM (active) with K562; 2.58 µM (inactive) in the assay on PC-3. Also, the GI50 was 3.44 µM (inactive) in the assay on HOP-62; 2.86 µM (inactive) with SN12C; 2.4 µM (inactive) in the assay on HOP-92; 9.06 µM (inactive) in the assay with DU-145; 11.5 µM (inactive) with IGROV-1; 14.2 µM (inactive) in the assay on RXF 393. Moreover, the GI50 in the assay with HCC 2998 was 4.18 µM (inactive).

With `Nc1nc(Cl)cc(NCC2(CO)COC2)n1`, the GI50 in the assay with SNB-75 was > 100 µM (inactive); in the assay on T47D, 53.8 µM (inactive); with OVCAR-8, > 100 µM (inactive); in the assay with COLO 205, > 100 µM (inactive); in the assay on UACC-257, > 100 µM (inactive); with UACC-62, > 100 µM (inactive). Further, the GI50 was > 100 µM (inactive) in the assay on 786-0; > 10 µM (inactive) in the assay with MOLT-4; > 100 µM (inactive) with NCI-H460; > 100 µM (inactive) in the assay on SW-620; > 100 µM (inactive) in the assay on K562; > 100 µM (inactive) in the assay on PC-3. Further, the GI50 with HOP-62 was > 100 µM (inactive); in the assay with SN12C it was > 100 µM (inactive); with HOP-92, > 10 µM (inactive); with DU-145 it was > 100 µM (inactive); in the assay on IGROV-1 it was > 100 µM (inactive); in the assay on RXF 393, > 100 µM (inactive). The GI50 in the assay on HCC 2998 is > 100 µM (inactive).

On to `CN(C)c1ccc(/C=C(\NC(=O)c2ccccc2)C(=O)Nc2ccccc2C(=O)NCc2ccccc2)cc1`, for which the GI50 in the assay on SNB-75 is 0.0955 µM (active); in the assay on T47D, > 100 µM (inactive); with OVCAR-8 it was 59.4 µM (inactive); in the assay with COLO 205, > 100 µM (inactive); in the assay on UACC-257, 36.1 µM (inactive); with UACC-62 it was > 100 µM (inactive). The GI50 in the assay with 786-0 is > 100 µM (inactive); in the assay with MOLT-4, 56.4 µM (inactive); in the assay on NCI-H460, > 100 µM (inactive); with SW-620, > 100 µM (inactive); with K562, > 100 µM (inactive); in the assay with PC-3, > 100 µM (inactive). Moreover, the GI50 in the assay on HOP-62 is 31.4 µM (inactive); with SN12C, > 100 µM (inactive); in the assay on HOP-92 it was > 100 µM (inactive); in the assay on DU-145, > 100 µM (inactive); in the assay with IGROV-1, > 100 µM (inactive); in the assay on RXF 393, > 100 µM (inactive). Moreover, the GI50 in the assay with HCC 2998 is > 100 µM (inactive).

Regarding `CC1=NN(c2nc(N)nc(CN3CCOCC3)n2)C(C)(C)C1`, the GI50 is > 100 µM (inactive) in the assay with SNB-75; > 100 µM (inactive) with T47D; > 100 µM (inactive) in the assay on OVCAR-8; 60.4 µM (inactive) in the assay on COLO 205; > 100 µM (inactive) in the assay on UACC-257; 26.5 µM (inactive) in the assay on UACC-62. Further, the GI50 in the assay on 786-0 was 15.2 µM (inactive); in the assay on MOLT-4 it was > 100 µM (inactive); in the assay with NCI-H460 it was > 100 µM (inactive); in the assay on SW-620, > 100 µM (inactive); in the assay on K562, > 100 µM (inactive); with PC-3, > 100 µM (inactive). Besides, the GI50 with HOP-62 is 46.2 µM (inactive); in the assay with SN12C, > 100 µM (inactive); with HOP-92 it was 33.2 µM (inactive); with DU-145 it was > 100 µM (inactive); in the assay with IGROV-1, 16.9 µM (inactive); in the assay on RXF 393 it was > 100 µM (inactive). Also, the GI50 in the assay with HCC 2998 is > 100 µM (inactive).

Take `CC(O)C1(CNc2cc(Cl)nc(N)n2)CCCC1` (stereo not drawn): the GI50 in the assay on SNB-75 is 71 µM (inactive); in the assay on T47D, > 100 µM (inactive); in the assay on OVCAR-8, > 100 µM (inactive); in the assay with COLO 205, > 100 µM (inactive); with UACC-257, > 100 µM (inactive); with UACC-62, > 100 µM (inactive). For the same compound, the GI50 in the assay with 786-0, in the assay with MOLT-4, in the assay with NCI-H460, in the assay with SW-620, in the assay on K562 and with PC-3 was > 100 µM (inactive) each time. Besides, the GI50 is > 100 µM (inactive) in the assay with HOP-62; > 100 µM (inactive) with SN12C; 98.9 µM (inactive) with HOP-92; > 100 µM (inactive) with DU-145; > 100 µM (inactive) with IGROV-1; > 100 µM (inactive) with RXF 393. Also, the GI50 in the assay with HCC 2998 was 23.4 µM (inactive).

The record behind these values is ChEMBL document CHEMBL1201862, “PubChem BioAssay data set” (2004).
